# According to PubChem BioAssay AID2060604 (Molecular Pharmacology Branch, DTP, NCI, 2025):
# Values joined by “and” are separate entries in the source; they are usually repeats but may differ in a detail not shown here. Identical values can stand only once.
# System: 379773-124-R-J2-PDC complex spheroids, viability % test/control
# Assay: Anticancer human tumor 379773-124-R-J2-PDC patient-derived endometrial carcinoma cell line growth inhibition [CLK]
# Conditions: for viability, T/C: stronger effect = lower value
# How it was run: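 Patient-derived tumor cells grown as complex spheroids with HUVEC endothelial cells and mesenchymal stem cells, treated with drug combinations. Concentrations descend in half-log steps from near clinical Cmax, or from 10 microM if Cmax unknown.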
# [1] = curve of first compound, second compound 0.0316 µM
# [2] = curve of first compound, second compound 0.1 µM
# [3] = curve of first compound, second compound 0.316 µM
# [4] = curve of first compound, second compound 1 µM
# [5] = curve of first compound, second compound 3.16 µM
# [6] = curve of first compound, second compound 10 µM
# [7] = second compound 0.0316 µM, first compound 0.0316 µM
# [8] = second compound 0.0316 µM, first compound 0.1 µM
# [9] = second compound 0.0316 µM, first compound 0.316 µM
# [10] = second compound 0.0316 µM, first compound 1 µM
# [11] = second compound 0.0316 µM, first compound 3.16 µM
# [12] = second compound 0.0316 µM, first compound 10 µM
# [13] = second compound 0.1 µM, first compound 0.0316 µM
# [14] = second compound 0.1 µM, first compound 0.1 µM
# [15] = second compound 0.1 µM, first compound 0.316 µM
# [16] = second compound 0.1 µM, first compound 1 µM
# [17] = second compound 0.1 µM, first compound 3.16 µM
# [18] = second compound 0.1 µM, first compound 10 µM
# [19] = second compound 0.316 µM, first compound 0.0316 µM
# [20] = second compound 0.316 µM, first compound 0.1 µM
# [21] = second compound 0.316 µM, first compound 0.316 µM
# [22] = second compound 0.316 µM, first compound 1 µM
# [23] = second compound 0.316 µM, first compound 3.16 µM
# [24] = second compound 0.316 µM, first compound 10 µM
# [25] = second compound 1 µM, first compound 0.0316 µM
# [26] = second compound 1 µM, first compound 0.1 µM
# [27] = second compound 1 µM, first compound 0.316 µM
# [28] = second compound 1 µM, first compound 1 µM
# [29] = second compound 1 µM, first compound 3.16 µM
# [30] = second compound 1 µM, first compound 10 µM
# [31] = second compound 3.16 µM, first compound 0.0316 µM
# [32] = second compound 3.16 µM, first compound 0.1 µM
# [33] = second compound 3.16 µM, first compound 0.316 µM
# [34] = second compound 3.16 µM, first compound 1 µM
# [35] = second compound 3.16 µM, first compound 3.16 µM
# [36] = second compound 3.16 µM, first compound 10 µM
# [37] = second compound 10 µM, first compound 0.0316 µM
# [38] = second compound 10 µM, first compound 0.1 µM
# [39] = second compound 10 µM, first compound 0.316 µM
# [40] = second compound 10 µM, first compound 1 µM
# [41] = second compound 10 µM, first compound 3.16 µM
# [42] = second compound 10 µM, first compound 10 µM
# 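Further: compound exposure lasted seven days before the viability readout.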
# 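Wherever viability, T/C is given: 100% = DMSO vehicle control wells.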
structure (smiles),measurement,setting,value
COc1ccc([C@@H](O)c2cc(-c3ncnc4cc(N5CCOCC5)ccc34)c(F)cc2Cl)nn1 + CN1CCN(c2cc(C(=O)Nc3cc4cc(-c5cnn(C)c5)ccc4cn3)ccn2)CC1,IC50,[1],5320 nM
same,IC50,[2],2820 nM
same,IC50,[3],< 31.6 nM
same,IC50,[4],< 31.6 nM
same,IC50,[5],< 31.6 nM
same,IC50,[6],< 31.6 nM
same,"viability, T/C",[7],87.4%
same,"viability, T/C",[8],80.7%
same,"viability, T/C",[9],96.9%
same,"viability, T/C",[10],79.2%
same,"viability, T/C",[11],71.8%
same,"viability, T/C",[12],24.4%
same,"viability, T/C",[13],70.2%
same,"viability, T/C",[14],76.5%
same,"viability, T/C",[15],86.2%
same,"viability, T/C",[16],47%
same,"viability, T/C",[17],55%
same,"viability, T/C",[18],19.1%
same,"viability, T/C",[19],14.9%
same,"viability, T/C",[20],16.6%
same,"viability, T/C",[21],16.6%
same,"viability, T/C",[22],17.7%
same,"viability, T/C",[23],12.9%
same,"viability, T/C",[24],5.38%
same,"viability, T/C",[25],0.1%
same,"viability, T/C",[26],0.09%
same,"viability, T/C",[27],0.11%
same,"viability, T/C",[28],0.05%
same,"viability, T/C",[29],1.5%
same,"viability, T/C",[30],0.08%
same,"viability, T/C",[31],0.65%
same,"viability, T/C",[32],1.73%
same,"viability, T/C",[33],0.73%
same,"viability, T/C",[34],0.06%
same,"viability, T/C",[35],0.09%
same,"viability, T/C",[36],0.08%
same,"viability, T/C",[37],0.49%
same,"viability, T/C",[38],0.1%
same,"viability, T/C",[39],0.79%
same,"viability, T/C",[40],0.11%
same,"viability, T/C",[41],0.24%
same,"viability, T/C",[42],0.14%
CC1COCCN1c1cc(C2(S(C)(=N)=O)CC2)nc(-c2ccnc3[nH]ccc23)n1 (stereo unspecified),"viability, T/C",compound 0.0316 µM,90.7% and 97.2%
same,"viability, T/C",compound 0.1 µM,80.4% and 89.4%
same,"viability, T/C",compound 0.316 µM,70.8% and 87.9%
same,"viability, T/C",compound 1 µM,88.6% and 74.2%
same,"viability, T/C",compound 3.16 µM,44.8% and 47.4%
same,"viability, T/C",compound 10 µM,11.5% and 10.6%
same,IC50,curve of compound,2700 nM and 2870 nM
O=c1[nH]cc(F)c(=O)[nH]1 + CN1CCN(c2cc(C(=O)Nc3cc4cc(-c5cnn(C)c5)ccc4cn3)ccn2)CC1,IC50,[1],> 10000 nM
same,IC50,[2],> 10000 nM
same,IC50,[3],< 31.6 nM
same,IC50,[4],< 31.6 nM
same,IC50,[5],< 31.6 nM
same,IC50,[6],< 31.6 nM
same,"viability, T/C",[7],92.2%
same,"viability, T/C",[8],86.8%
same,"viability, T/C",[9],93.4%
same,"viability, T/C",[10],82.3%
same,"viability, T/C",[11],74.5%
same,"viability, T/C",[12],56.2%
same,"viability, T/C",[13],82%
same,"viability, T/C",[14],82.2%
same,"viability, T/C",[15],78.4%
same,"viability, T/C",[16],67.4%
same,"viability, T/C",[17],70.6%
same,"viability, T/C",[18],54.1%
same,"viability, T/C",[19],24.9%
same,"viability, T/C",[20],23.4%
same,"viability, T/C",[21],28.6%
same,"viability, T/C",[22],22.5%
same,"viability, T/C",[23],19.1%
same,"viability, T/C",[24],14.8%
same,"viability, T/C",[25],0.12%
same,"viability, T/C",[26],0.11%
same,"viability, T/C",[27],0.1%
same,"viability, T/C",[28],0.08%
same,"viability, T/C",[29],1.26%
same,"viability, T/C",[30],0.11%
same,"viability, T/C",[31],0.39%
same,"viability, T/C",[32],1.04%
same,"viability, T/C",[33],0.08%
same,"viability, T/C",[34],1.36%
same,"viability, T/C",[35],0.05%
same,"viability, T/C",[36],0.94%
same,"viability, T/C",[37],1.85%
same,"viability, T/C",[38],1.37%
same,"viability, T/C",[39],0.12%
same,"viability, T/C",[40],0.11%
same,"viability, T/C",[41],0.1%
same,"viability, T/C",[42],0.68%
CCCS(=O)(=O)Nc1ccc(F)c(C(=O)c2c[nH]c3ncc(-c4ccc(Cl)cc4)cc23)c1F + CN1CCN(c2cc(C(=O)Nc3cc4cc(-c5cnn(C)c5)ccc4cn3)ccn2)CC1,IC50,[1],> 10000 nM
same,IC50,[2],> 10000 nM
same,IC50,[3],< 31.6 nM
same,IC50,[4],< 31.6 nM
same,IC50,[5],< 31.6 nM
same,IC50,[6],< 31.6 nM
same,"viability, T/C",[7],80.5%
same,"viability, T/C",[8],86.1%
same,"viability, T/C",[9],94.8%
same,"viability, T/C",[10],90.1%
same,"viability, T/C",[11],82.4%
same,"viability, T/C",[12],58.7%
same,"viability, T/C",[13],83.6%
same,"viability, T/C",[14],65.8%
same,"viability, T/C",[15],75.8%
same,"viability, T/C",[16],70.2%
same,"viability, T/C",[17],68.9%
same,"viability, T/C",[18],54.8%
same,"viability, T/C",[19],26.6%
same,"viability, T/C",[20],27.3%
same,"viability, T/C",[21],30.2%
same,"viability, T/C",[22],27.2%
same,"viability, T/C",[23],29.8%
same,"viability, T/C",[24],18.3%
same,"viability, T/C",[25],0.16%
same,"viability, T/C",[26],0.29%
same,"viability, T/C",[27],0.14%
same,"viability, T/C",[28],0.13%
same,"viability, T/C",[29],1.03%
same,"viability, T/C",[30],0.09%
same,"viability, T/C",[31],0.1%
same,"viability, T/C",[32],0.48%
same,"viability, T/C",[33],0.12%
same,"viability, T/C",[34],0.91%
same,"viability, T/C",[35],0.09%
same,"viability, T/C",[36],0.51%
same,"viability, T/C",[37],0.14%
same,"viability, T/C",[38],1.01%
same,"viability, T/C",[39],0.7%
same,"viability, T/C",[40],2.8%
same,"viability, T/C",[41],0.19%
same,"viability, T/C",[42],0.29%
C#Cc1c(F)ccc2cc(O)cc(-c3ncc4c(N5CC6CCC(C5)N6)nc(OCC56CCCN5CC(F)C6)nc4c3F)c12 (stereo unspecified),"viability, T/C",compound 0.0316 µM,90.6% and 93%
same,"viability, T/C",compound 0.1 µM,79.4% and 89.5%
same,"viability, T/C",compound 0.316 µM,88.3% and 86.8%
same,"viability, T/C",compound 1 µM,92% and 85.9%
same,"viability, T/C",compound 3.16 µM,87% and 103%
same,"viability, T/C",compound 10 µM,80% and 87.1%
same,IC50,curve of compound,> 10000 nM
C=CC(=O)N1CCN(c2nc(=O)n(-c3c(C)ccnc3C(C)C)c3nc(-c4c(O)cccc4F)c(F)cc23)C(C)C1 (stereo unspecified) + CNC(=O)c1ccc(Nc2nc(OC3CCCC3)c3c(-c4ccc5nc(C)oc5c4)c[nH]c3n2)c(OC)c1,IC50,[1],> 10000 nM
same,IC50,[2],< 31.6 nM
same,IC50,[3],< 31.6 nM
same,IC50,[4],< 31.6 nM
same,IC50,[5],< 31.6 nM
same,IC50,[6],< 31.6 nM
same,"viability, T/C",[7],74.3%
same,"viability, T/C",[8],80%
same,"viability, T/C",[9],76.1%
same,"viability, T/C",[10],76.5%
same,"viability, T/C",[11],76.5%
same,"viability, T/C",[12],71.3%
same,"viability, T/C",[13],34.9%
same,"viability, T/C",[14],46.9%
same,"viability, T/C",[15],42.7%
same,"viability, T/C",[16],39.2%
same,"viability, T/C",[17],36.6%
same,"viability, T/C",[18],38.3%
same,"viability, T/C",[19],43.6%
same,"viability, T/C",[20],33%
same,"viability, T/C",[21],41.9%
same,"viability, T/C",[22],41.6%
same,"viability, T/C",[23],37%
same,"viability, T/C",[24],38.5%
same,"viability, T/C",[25],34.6%
same,"viability, T/C",[26],33.1%
same,"viability, T/C",[27],45%
same,"viability, T/C",[28],34.5%
same,"viability, T/C",[29],32.6%
same,"viability, T/C",[30],28.4%
same,"viability, T/C",[31],31.1%
same,"viability, T/C",[32],34.5%
same,"viability, T/C",[33],34.9%
same,"viability, T/C",[34],28.1%
same,"viability, T/C",[35],29%
same,"viability, T/C",[36],27.7%
same,"viability, T/C",[37],27.8%
same,"viability, T/C",[38],33.1%
same,"viability, T/C",[39],29.2%
same,"viability, T/C",[40],28.2%
same,"viability, T/C",[41],40%
same,"viability, T/C",[42],18.4%
Nc1ccn(C2OC(CO)C(O)C2(F)F)c(=O)n1 (stereo unspecified),"viability, T/C",compound 0.0316 µM,6.4% and 4.58%
same,"viability, T/C",compound 0.1 µM,5.3% and 4.24%
same,"viability, T/C",compound 0.316 µM,6.69% and 3.96%
same,"viability, T/C",compound 1 µM,5.77% and 4.69%
same,"viability, T/C",compound 3.16 µM,4.84% and 3.97%
same,"viability, T/C",compound 10 µM,3.93% and 3.21%
same,IC50,curve of compound,< 31.6 nM
O=C(c1cc(Cc2n[nH]c(=O)c3ccccc23)ccc1F)N1CCN(C(=O)C2CC2)CC1,"viability, T/C",compound 0.0316 µM,83.1% and 108%
same,"viability, T/C",compound 0.1 µM,89% and 86.6%
same,"viability, T/C",compound 0.316 µM,89.2% and 84.2%
same,"viability, T/C",compound 1 µM,89.5% and 80.5%
same,"viability, T/C",compound 3.16 µM,81.5% and 78.6%
same,"viability, T/C",compound 10 µM,56.1% and 47%
same,IC50,curve of compound,> 10000 nM
